Data: PubChem BioAssay AID608 (Sanford-Burnham Center for Chemical Genomics, 2007)
Values joined by “and” are separate entries in the source; they are usually repeats but may differ in a detail not shown here. Equal entries are not always repeated. Active and inactive are the calls of the source. No rule for the calls is given here.

These compounds were tested against Peptidyl-prolyl cis-trans isomerase FKBP1A (Homo sapiens) (UniProt P62942) (assay: FKBP12 binders, biophysical, NMR detection (AID 608)). Details: NMR binding, purified FKBP12.
Chain of Peptidyl-prolyl cis-trans isomerase FKBP1A (Homo sapiens) (P62942 whole entry, looked up): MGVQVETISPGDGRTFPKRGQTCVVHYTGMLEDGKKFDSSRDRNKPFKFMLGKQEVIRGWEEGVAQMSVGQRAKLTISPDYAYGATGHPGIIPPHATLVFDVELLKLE

Row | SMILES | Kd
1 | Cc1nc(-c2ccccc2)ncc1C(=O)O | > 4 mM (inactive)
2 | O=C(O)C1CC(=O)N(CCc2ccc(Cl)cc2)C1 (configuration not stated) | > 4 mM (inactive)
3 | c1ccc2[nH]c(-c3cscn3)nc2c1 | 0.111 mM and 0.056 mM
4 | CC(C)Nc1nc2n(c(=O)n1)CCN2C(C)C | > 4 mM (inactive)
5 | O=c1[nH]oc2ccccc12 | > 4 mM (inactive)
6 | COc1cc(CNCc2cccs2)ccc1OCC(=O)N1CCOCC1 | > 4 mM (inactive)
7 | Nc1nc(-c2ccccc2)cc(=O)[nH]1 | > 4 mM (inactive)
8 | O=C(O)CCC1NCC2CC1CN1CCCCC21 (configuration not stated) | > 4 mM (inactive)
9 | CN1CCN(CC(=O)NC2CCCCC2)CC1 | > 4 mM (inactive)
10 | CCOc1nc(C)ccc1-c1noc(-c2ccco2)n1 | > 4 mM (inactive)
11 | CNCc1ccco1 | > 4 mM (inactive)
12 | OCCNC(=S)Nc1ccc(F)cc1 | > 4 mM (inactive)
13 | O=P(c1ccccc1)(c1ccccc1)C1CCOCC1 | > 4 mM (inactive)
14 | CNc1nc(N)c(C(=O)C(C)(C)C)s1 | > 4 mM (inactive)
15 | CC(=O)Oc1c2c(c3c(c1CC=C(C)C)O[C@]14C(=C[C@@H]5CC1C(C)(C)OC4(C/C=C(\C)C(=O)O)C5=O)C3=O)OC(C)(CCC=C(C)C)C=C2 (some centres not stated) | > 4 mM (inactive)
16 | CC(=O)Nc1nnc(-c2ccccc2S(C)(=O)=O)o1 | > 4 mM (inactive)
17 | C=C[C@H]1CN2CC[C@H]1C[C@H]2[C@H](O)c1ccnc2ccccc12 | > 4 mM (inactive)
18 | CC1(C)Cc2c(C#N)c(N)n(-c3ccccc3)c(=O)c2CO1 | > 4 mM (inactive)
19 | CC(=O)Nc1cnn(-c2ccccc2)c(=O)c1Cl | > 4 mM (inactive)
20 | O=C1NC(=O)/C(=C/c2ccc(O)cc2)N1 | > 4 mM (inactive)
21 | O=C(NCc1ccco1)c1ccc(=O)[nH]c1 | > 4 mM (inactive)

Row | SMILES | Kd
22 | CCc1nnc(NC(C)=O)s1 | > 4 mM (inactive)
23 | Cc1ccc(C(=O)NC2=NCCS2)o1 | > 4 mM (inactive)
24 | CC(=O)c1cc(-c2nc3ccccc3n2C)n(C)c1 | > 4 mM (inactive)
25 | S=C(NC1CC1)NN1CCOCC1 | > 4 mM (inactive)
26 | CC[C@@]1(O)C[C@H](O)c2c(cc3c(c2O)C(=O)c2c(O)ccc(O)c2C3=O)[C@H]1C(=O)OC | > 4 mM (inactive)
27 | C[C@]12CCC(=O)C=C1CCC1C2C(=O)C[C@@]2(C)C1CC[C@]2(O)C(=O)CO (some centres not stated) | > 4 mM (inactive)
28 | Cc1ccc(/C=C2/NC(=S)NC2=O)s1 | > 4 mM (inactive)
29 | CNC(=O)C1=NCCCc2cc(OC)c(OC)cc21 | > 4 mM (inactive)
30 | CN(C)C(=O)Nc1ccc2c(c1)nnn2C | > 4 mM (inactive)
31 | CC(=O)Oc1cc2c(C(C)=O)coc2c2ccccc12 | > 4 mM (inactive)
32 | CCN1CCN(c2ncnc3c2nnn3C)CC1 | > 4 mM (inactive)
33 | Cc1ccc(OCC(=O)N2CCOCC2)c(C)c1 | inactive
34 | COc1ccc(C2NC(C(=O)O)CS2)cc1 (configuration not stated) | > 4 mM (inactive)
35 | OCC1CCCCCN1 (configuration not stated) | > 4 mM (inactive)
36 | O=C(Nc1ccncc1)c1c(F)cccc1F | > 4 mM (inactive)
37 | COc1ccc(-c2c(C)n([O-])c(C)c(C)[n+]2=O)cc1 | > 4 mM (inactive)
38 | Cn1nnc2cc(C(=O)NC3CCCCC3)ccc21 | > 4 mM (inactive)
39 | CC1(C)CC2(CCO1)NCCN1C(=O)CSC12 (configuration not stated) | > 4 mM (inactive)
40 | O=C(NCc1cccc(Cl)c1)c1cccnc1 | > 4 mM (inactive)
41 | O=C1N=c2ccccc2=C1c1[nH]c(=S)[nH]c1O | > 4 mM (inactive)
42 | Cc1cc(OC(=O)c2c(C)cc(O)cc2O)cc(O)c1C(=O)O | > 4 mM (inactive)

Row | SMILES | Kd
43 | CP(C)(=O)c1cccc(C(=O)O)c1 | > 4 mM (inactive)
44 | O=C(NCc1ccccc1)c1cnsn1 | > 4 mM (inactive)
45 | COc1cc([C@H]2Oc3cc([C@H]4Oc5cc(O)cc(O)c5C(=O)[C@@H]4O)ccc3O[C@@H]2CO)ccc1O | > 4 mM (inactive)
46 | O=C(Nn1cnnc1)c1ccccc1-c1ccccc1 | > 4 mM (inactive)
47 | C[C@H](CCC(=O)O)[C@H]1CCC2C3C(CC[C@@]21C)[C@@]1(C)CC[C@@H](O)C[C@H]1C[C@H]3O (some centres not stated) | > 4 mM (inactive)
48 | CC(C)(C)CC(=O)NNC(=O)c1cnccn1 | > 4 mM (inactive)
49 | Cc1cc(C)n(C2CCS(=O)(=O)C2)n1 (configuration not stated) | > 4 mM (inactive)
50 | NC(=O)Cn1nc2c3c(cccc3c1=O)-c1ccccc1-2 | > 4 mM (inactive)
51 | O=C1CCC(C(=O)NCc2ccc(Cl)cc2)N1 (configuration not stated) | > 4 mM (inactive)
52 | Nc1cc(F)nc(F)n1 | > 4 mM (inactive)
53 | Cc1nnc(NCCCO)[nH]c1=O | > 4 mM (inactive)
54 | CC(C)(C#N)O[C@@H]1O[C@H](CO)[C@@H](O)[C@H](O)[C@H]1O | > 4 mM (inactive)
55 | COc1cc([C@@H]2c3cc4c(cc3[C@H](O)[C@H]3COC(=O)[C@@H]23)OCO4)cc(OC)c1OC | > 4 mM (inactive)
56 | COc1ccccc1C(=O)Nc1ccccn1 | > 4 mM (inactive)
57 | O=S(=O)(Nc1ccc(Br)cc1)N1CCCCC1 | 0.669 mM
58 | COc1cc(OC)c2c(c1)O[C@H](c1ccc(OC)c(OC)c1)[C@@H](O)C2 | > 4 mM (inactive)
59 | NC(=O)CSc1ccc(Br)cc1 | > 4 mM (inactive)
60 | O=C1C2CC=CCC2C(=O)N1c1cccc(O)c1 (configuration not stated) | > 4 mM (inactive)
61 | N/C(=N/S(=O)(=O)c1cccs1)c1ccccc1 | > 4 mM (inactive)
62 | CC(=O)O[C@H]1C[C@@H](OC(C)=O)C(C)(C)C2CC(=O)[C@]3(C)C(CC[C@@]4(C)[C@H](c5ccoc5)OC(=O)[C@H]5O[C@]543)[C@]21C (some centres not stated) | > 4 mM (inactive)
63 | CCc1sc(C(=O)NC)cc1Br | > 4 mM (inactive)

Row | SMILES | Kd
64 | O=C(/C=C/c1ccc(O)c(O)c1)O[C@@H]1C[C@](O)(C(=O)O)C[C@@H](O)[C@H]1O | > 4 mM (inactive)
65 | CC(=O)Nc1ccc(NC(C)=O)c(C(F)(F)F)c1 | > 4 mM (inactive)
66 | O=C(O)c1ccc(-c2ccccn2)s1 | > 4 mM (inactive)
67 | CCOCC(=O)N1CCc2ccccc21 | > 4 mM (inactive)
68 | COC(=O)Cc1cccc(OC)c1 | > 4 mM (inactive)
69 | CS(=O)(=O)NN=C1CCCCC1 | > 4 mM (inactive)
70 | O=C(NN1C(=O)C2C3C=CC(C3)C2C1=O)C1CC=CCC1 (configuration not stated) | > 4 mM (inactive)
71 | C[C@@H]1OC(O[C@H]2C(O[C@H]3CC[C@@]4(C)C(CC[C@]5(C)C4CC=C4C6CC(C)(C)CC[C@]6(C(=O)O)CC[C@]45C)[C@]3(C)CO)OC[C@H](O)[C@@H]2O)[C@H](O)[C@H](O)[C@H]1O (some centres not stated) | > 4 mM (inactive)
72 | CCOC(=O)Cc1nc2ccccc2[nH]1 | > 4 mM (inactive)
73 | CC(O)C(=O)N/N=C/c1cccs1 (configuration not stated) | > 4 mM (inactive)
74 | C[C@@H]1CC[C@H]2[C@@H](C)C(=O)O[C@@H]3OC4(C)CC[C@@H]1[C@]32OO4 | > 4 mM (inactive)
75 | Fc1ccc(Br)cc1/C=N/n1cnnc1 | > 4 mM (inactive)
76 | OCC(O)C(O)C(O)CO (configuration not stated) | > 4 mM (inactive)
77 | O=C(O)c1cn(-c2ccccc2)nc1-c1cccnc1 | > 4 mM (inactive)
78 | Nc1cccc(-n2cccc2)c1 | > 4 mM (inactive)
79 | O=C(NC(O)C(=O)c1ccccc1)c1ccco1 (configuration not stated) | > 4 mM (inactive)
80 | CC(C)NS(=O)(=O)c1ccc(N)cc1 | > 4 mM (inactive)
81 | O=C1NCCCC1C(=O)N/N=C/c1ccccc1 (configuration not stated) | > 4 mM (inactive)
82 | O=C1Nc2ccc(S(=O)(=O)NCCO)c3cccc1c23 | > 4 mM (inactive)
